Source: PubChem BioAssay (NCI)
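Assay format: 96-well plates, 48-hour exposure. GI50 = concentration required for 50% inhibition of growth. TGI: concentration producing complete growth inhibition.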

What was measured:
Assay in all cases: inhibition of tumour cell growth, NCI panel, 48 h
[1] = tested on: SNB-75 CNS
[2] = tested on: SW-620 colon
[3] = tested on: BT-549 breast
[4] = tested on: SN12C renal
[5] = tested on: TK-10 renal
[6] = tested on: OVCAR-8 ovarian
[7] = tested on: ACHN renal
[8] = tested on: COLO 205 colon
[9] = tested on: A549 NSCLC
[10] = tested on: CCRF-CEM leukemia
[11] = tested on: IGROV1 ovarian
[12] = tested on: A498 renal
[13] = tested on: SR leukemia
[14] = tested on: OVCAR-4 ovarian
[15] = tested on: M14 melanoma
[16] = tested on: SK-MEL-5 melanoma
[17] = tested on: K-562 leukemia
[18] = tested on: MDA-MB-435
[19] = tested on: NCI-H23 lung
[20] = tested on: UACC-257 melanoma
[21] = tested on: OVCAR-3 ovarian
[22] = tested on: HCT-116 colon
[23] = tested on: T-47D breast
[24] = tested on: 786-0 renal
[25] = tested on: OVCAR-5 ovarian
[26] = tested on: HOP-92 NSCLC
[27] = tested on: UACC-62 melanoma
[28] = tested on: SK-OV-3 ovarian
[29] = tested on: LOX IMVI melanoma

Compound `O=C(N/N=C/c1occc1Br)c1[nH]c2ccc(Br)cc2c1-c1ccccc1` has a GI50 [1] of 0.832 µM, a TGI [1] of 14.2 µM and a GI50 [2] of 0.443 µM. It also gave a TGI [2] of 14.3 µM, a GI50 [3] of 0.743 µM and a TGI [3] of 12.9 µM. For the same compound, the GI50 [4] was 1.51 µM, the TGI [4] was 12.5 µM and the GI50 [5] was 7.68 µM. For the same compound, the TGI [5] was 26.5 µM, the GI50 [6] was 2.3 µM and the TGI [6] was 11.3 µM. It also gave a GI50 [7] of 0.952 µM, a TGI [7] of 16.2 µM and a GI50 [8] of 0.561 µM. It also gave a TGI [8] of 3.97 µM, a GI50 [9] of 1.95 µM and a TGI [9] of 21.9 µM. It also gave a GI50 [10] of 0.512 µM, a TGI [10] of 11 µM and a GI50 [11] of 1.23 µM. For the same compound, the TGI [11] was 13.7 µM, the GI50 [12] was 14.8 µM and the TGI [12] was 28.8 µM. For the same compound, the GI50 [13] was 0.459 µM, the TGI [13] was 30 µM and the GI50 [14] was 7.1 µM. For the same compound, the TGI [14] was 22 µM, the GI50 [15] was 0.669 µM and the TGI [15] was 15.8 µM. It also gave a GI50 [16] of 0.677 µM, a TGI [16] of 6.21 µM and a GI50 [17] of 0.384 µM. For the same compound, the TGI [17] was greater than 100 µM, the GI50 [18] was 0.249 µM and the TGI [18] was 0.875 µM. The GI50 [19] was 2.05 µM, the TGI [19] was 13.2 µM and the GI50 [20] was 12.5 µM. The TGI [20] was 28.8 µM, the GI50 [21] was 0.351 µM and the TGI [21] was 11.8 µM. For the same compound, the GI50 [22] was 0.557 µM, the TGI [22] was 12.6 µM and the GI50 [23] was 0.484 µM. The TGI [23] was 19.7 µM, the GI50 [24] was 0.677 µM and the TGI [24] was 16.7 µM. The GI50 [25] was 2.79 µM, the TGI [25] was 13.6 µM and the GI50 [26] was 11.2 µM. The TGI [26] was 24.7 µM, the GI50 [27] was 0.384 µM and the TGI [27] was 16.7 µM. It also gave a GI50 [28] of 1.5 µM, a TGI [28] of 18.1 µM and a GI50 [29] of 0.663 µM. For the same compound, the TGI [29] was 12.7 µM.
